Source: patent US4440772A, “Acid addition salts of dextrorotatory ergot alkaloids, a process for the preparation thereof as well as their use as medicines” (priority 1978, dated 1984)
Where a name gives a salt, the structure may show the parent alone. Read-outs that look alike come from different tables or passages of the source.

Tests used:
[1] = acute toxicity (LD50), intraperitoneal administration; details: mouse, in vivo, ip, male mice, 24 hours after administration
Protocol: The volume of injected solution was 0.01 ml/g of body weight. In the following Table I acute toxicity of dextrorotatory ergot alkaloids in comparison with levorotatory ergot alkaloids 24 hours after the intraperitoneal administration is given.

[2] = test system: alpha-adrenergic receivers of the dilatating pupil muscle; assay: effect on the function of the pupil (mydriatic effect, Polewka's method); assay type: in vivo; details: 5 mg/kg intravenously, mouse
Protocol: The phenomenon of mydriasis induced by ergot alkaloids results from the stimulation of alpha-adrenergic receivers of the dilatating pupil muscle (Z. Votava et al., Arch. int. Pharmacodin. 45, 1958, 114).
The mydriatic effect of dextrorotatory ergot alkaloids administered intravenously was determined with a monocular measuring magnifying glass by Polewka's method (A. R. Turner, Screening Methods in Pharmacology, 1965, p. 174 ff.).
The size of the pupil was measured at first before the administration of the substance and then 15, 30 and 60 minutes after intravenous administration of alkaloids into the mouse tail (dose 5 mg/kg of body weight).

[3] = test system: isolated heart of a guinea pig; assay: effect on isolated heart of a guinea pig, modified Langendorff's method
Description: The effect of dextrorotatory ergot alkaloids according to the invention on heart in vitro was examined on isolated heart of a guinea pig by the modified Langendorff's method (Zalar et al., Poll. Chim. Farmac. 114, 1975, 146). Alkaloids were infused by an apparatus for slow infusion (B. Melsungen).

[4] = test system: spontaneously hypertensive rats; assay: effect on arterial pressure of spontaneously hypertensive rats; assay type: in vivo, rats (variety Okamoto Aoki F32)
Protocol: For the experiment groups of 10 spontaneously hypertensive rats (variety Okamoto Aoki F32) of both sexes, weighing from 200 to 250 g, were used. The acid addition salts of said dextrorotatory ergot alkaloids were administered intraperitoneally in doses of 50 mcg/kg of body weight and systolic blood pressure was measured on the rats' tails by means of plethysmographic method (K. Okamoto and K. Aoki, Jap. Circulat. J. 27, 1963, 282).

[5] = test system: arrhythmias induced by adrenalin; assay: effect on arrhythmia induced by adrenalin; assay type: in vivo; details: 2.0 mg/kg intraperitoneally, guinea pigs, adrenalin 0.02 mg/kg intravenously
Protocol: For experiments, guinea pigs of both sexes, weighing from 400 to 550 g, were used. The narcotized animals (urethane 1.6 g/kg of body weight, intraperitoneally) were at first intravenously administered adrenalin (0.02 mg/kg) and then dextrorotatory ergot alkaloids. 1 hour and 1.5 hours after the administration of dextrorotatory ergot alkaloids, adrenalin was again administered intravenously (0.02 mg/kg) and the presence as well as duration of arrhythmias was ascertained.

[6] = test system: smooth muscles of blood vessels; assay: effect on blood pressure drop in rats with cut spinal cord; assay type: in vivo, rats (variety Wistar); details: for duration of long-duration hypertension: acid addition salts, 1.5 mg/kg of body weight; for vasoconstrictory effect: contraction of smooth muscles of blood vessels
Description: Rats (variety Wistar) in urethane narcosis were cut their spinal cord in the region of the second cervical vertebra and connected to an artificial breathing apparatus (B. Melsungen). By this intervention the central regulation of blood pressure was eliminated. In so treated animals blood pressure dropped for about 50 mm Hg. The experiment was supposed to show whether the examined substances directly affected the smooth muscles of blood vessels.

[7] = control, spontaneously hypertensive rats
[8] = day 2, 50 mcg/kg intraperitoneally
[9] = day 4, 50 mcg/kg intraperitoneally
[10] = day 6, 50 mcg/kg intraperitoneally
[11] = day 8, 50 mcg/kg intraperitoneally
[12] = day 10, 50 mcg/kg intraperitoneally

SMILES | LD50 at 24 h [1] | The increase of pupil widening in comparison with the control ([2]; after 15 min.) | The increase of pupil widening in comparison with the control ([2]; after 30 min.) | The increase of pupil widening in comparison with the control ([2]; after 60 min.) | Systolic blood pressure [4, 7] | Systolic blood pressure [4, 8] | Systolic blood pressure [4, 9] | Systolic blood pressure [4, 10] | Systolic blood pressure [4, 11] | Systolic blood pressure [4, 12] | Shortening of arrhythmia duration [5] | also measured
CC(C)[C@@]1(NC(=O)[C@@H]2C=C3c4cccc5[nH]cc(c45)C[C@H]3N(C)C2)O[C@@]2(O)[C@@H]3CCCN3C(=O)[C@H](Cc3ccccc3)N2C1=O [ergocristine methanesulfonate, reference compound] | 234 mg/kg | – | – | – | – | – | – | – | – | – | – | –
CC(C)C[C@H]1C(=O)N2CCC[C@H]2[C@]2(O)O[C@](NC(=O)[C@H]3C=C4c5cccc6[nH]cc(c56)C[C@H]4N(C)C3)(C(C)C)C(=O)N12 [ergocryptinine methanesulfonate, Ergocryptinine methanesulfonate] | > 520 mg/kg | 117.4% | 91.6% | 32.2% | 189 mm Hg | 181 mm Hg | 176 mm Hg | 168 mm Hg | 161 mm Hg | 160 mm Hg | 63 % of control | activation at 0.04 µg/g ([3]; Cavia porcellus, dose 0.04 mcg/g of heart, read-out: (+)inotropic (maximum)): 111%; inhibition at 0.04 µg/g ([3]; Cavia porcellus, dose 0.04 mcg/g of heart, read-out: (-)chronotropic (maximum)): 21%
CC(C)C[C@H]1C(=O)N2CCC[C@H]2[C@]2(O)O[C@](NC(=O)[C@@H]3C=C4c5cccc6[nH]cc(c56)C[C@H]4N(C)C3)(C(C)C)C(=O)N12 [ergocryptine methanesulfonate, reference compound] | 188 mg/kg | – | – | – | – | – | – | – | – | – | – | –
CC(C)C[C@H]1C(=O)N2CCC[C@H]2[C@]2(O)O[C@](NC(=O)[C@H]3C=C4c5cccc6[nH]cc(c56)C[C@H]4N(C)C3)(C(C)C)C(=O)N12 [ergocryptinine] | – | – | – | – | – | – | – | – | – | – | – | mydriatic effect (in words) [2]: strongest mydriatic effect; effect on isolated heart (in words) ([3]; isolated heart of guinea pig): qualitatively similar to that of ergotamine, ergosine and dihydroergotamine; effect on the strength of heart contraction (in words) ([3]; isolated heart of guinea pig): quantitatively greater effect on the strength of heart contraction; duration of long-duration hypertension [6]: more than 60 minutes; vasoconstrictory effect [6]: vasoconstrictory effect
CN1C[C@@H](C(=O)N[C@]2(C)O[C@@]3(O)[C@@H]4CCCN4C(=O)[C@H](Cc4ccccc4)N3C2=O)C=C2c3cccc4[nH]cc(c34)C[C@H]21 [ergotaminine methanesulfonate, Ergotaminine methanesulfonate] | > 300 mg/kg | 66.3% | 69.8% | 30.3% | 189 mm Hg | 162 mm Hg | 143 mm Hg | 131 mm Hg | 144 mm Hg | 150 mm Hg | 28 % of control | activation at 5.59 µg/g ([3]; Cavia porcellus, dose 5.59 mcg/g of heart, read-out: (+)inotropic (maximum)): 32%; inhibition at 5.59 µg/g ([3]; Cavia porcellus, dose 5.59 mcg/g of heart, read-out: (-)chronotropic (maximum)): 20%
CC(C)[C@H]1C(=O)N2CCC[C@H]2[C@]2(O)O[C@](NC(=O)[C@H]3C=C4c5cccc6[nH]cc(c56)C[C@H]4N(C)C3)(C(C)C)C(=O)N12 [ergocorninine methanesulfonate, Ergocorninine methanesulfonate] | > 520 mg/kg | 52.7% | 36.1% | 19.4% | 190 mm Hg | 182 mm Hg | 176 mm Hg | 166 mm Hg | 160 mm Hg | 161 mm Hg | 46 % of control | inhibition at 4.9 µg/g ([3]; Cavia porcellus, dose 4.90 mcg/g of heart, read-out: (-)chronotropic (maximum)): 11%
CC(C)[C@@]1(NC(=O)[C@H]2C=C3c4cccc5[nH]cc(c45)C[C@H]3N(C)C2)O[C@@]2(O)[C@@H]3CCCN3C(=O)[C@H](Cc3ccccc3)N2C1=O [ergocristinine methanesulfonate, Ergocristinine methanesulfonate] | > 600 mg/kg | 48.7% | 10.3% | 2.5% | 187 mm Hg | 183 mm Hg | 177 mm Hg | 169 mm Hg | 160 mm Hg | 152 mm Hg | 32 % of control | activation at 4.98 µg/g ([3]; Cavia porcellus, dose 4.98 mcg/g of heart, read-out: (+)inotropic (maximum)): 9%; inhibition at 4.98 µg/g ([3]; Cavia porcellus, dose 4.98 mcg/g of heart, read-out: (-)chronotropic (maximum)): 12%
CC(C)C[C@H]1C(=O)N2CCC[C@H]2[C@]2(O)O[C@@](C)(NC(=O)[C@@H]3C=C4c5cccc6[nH]cc(c56)C[C@H]4N(C)C3)C(=O)N12 [ergosine methanesulfonate, reference compound] | 206 mg/kg | 115.6% | 110.5% | 39.7% | 188 mm Hg | 183 mm Hg | 178 mm Hg | 176 mm Hg | 175 mm Hg | 177 mm Hg | 84 % of control | activation at 0.57 µg/g ([3]; Cavia porcellus, dose 0.57 mcg/g of heart, read-out: (+)inotropic (maximum)): 49%; inhibition at 0.57 µg/g ([3]; Cavia porcellus, dose 0.57 mcg/g of heart, read-out: (-)chronotropic (maximum)): 17%
CN1C[C@H](C(=O)N[C@]2(C)O[C@@]3(O)[C@@H]4CCCN4C(=O)[C@H](Cc4ccccc4)N3C2=O)C=C2c3cccc4[nH]cc(c34)C[C@H]21 [ergotamine tartrate, reference compound] | 412 mg/kg | 73.3% | 22.8% | 4.6% | 179 mm Hg | 174 mm Hg | 170 mm Hg | 172 mm Hg | 173 mm Hg | 172 mm Hg | 63 % of control | activation at 0.65 µg/g ([3]; Cavia porcellus, read-out: (+)inotropic (maximum)): 75%; inhibition at 0.65 µg/g ([3]; Cavia porcellus, read-out: (-)chronotropic (maximum)): 30%
CC(C)[C@H]1C(=O)N2CCC[C@H]2[C@]2(O)O[C@](NC(=O)[C@H]3C=C4c5cccc6[nH]cc(c56)C[C@H]4N(C)C3)(C(C)C)C(=O)N12 [ergocorninine] | – | – | – | – | – | – | – | – | – | – | – | duration of long-duration hypertension [6]: more than 60 minutes; vasoconstrictory effect [6]: vasoconstrictory effect
CC(C)C[C@H]1C(=O)N2CCC[C@H]2[C@]2(O)O[C@@](C)(NC(=O)[C@H]3C=C4c5cccc6[nH]cc(c56)C[C@H]4N(C)C3)C(=O)N12 [ergosinine methanesulfonate, Ergosinine methanesulfonate] | 245 mg/kg | 135.0% | 122.5% | 32.5% | 180 mm Hg | 169 mm Hg | 152 mm Hg | 140 mm Hg | 141 mm Hg | 138 mm Hg | 79 % of control | activation at 0.65 µg/g ([3]; Cavia porcellus, dose 0.65 mcg/g of heart, read-out: (+)inotropic (maximum)): 103%; inhibition at 0.65 µg/g ([3]; Cavia porcellus, dose 0.65 mcg/g of heart, read-out: (-)chronotropic (maximum)): 23%
